Here are results for one molecule from publication PMC9937012 (Journal of Enzyme Inhibition and Medicinal Chemistry, 2023).

One assay concerns the target T1, human recombinant MAO-A (Homo sapiens, UniProt P21397).
T1 sequence (P21397 1-527): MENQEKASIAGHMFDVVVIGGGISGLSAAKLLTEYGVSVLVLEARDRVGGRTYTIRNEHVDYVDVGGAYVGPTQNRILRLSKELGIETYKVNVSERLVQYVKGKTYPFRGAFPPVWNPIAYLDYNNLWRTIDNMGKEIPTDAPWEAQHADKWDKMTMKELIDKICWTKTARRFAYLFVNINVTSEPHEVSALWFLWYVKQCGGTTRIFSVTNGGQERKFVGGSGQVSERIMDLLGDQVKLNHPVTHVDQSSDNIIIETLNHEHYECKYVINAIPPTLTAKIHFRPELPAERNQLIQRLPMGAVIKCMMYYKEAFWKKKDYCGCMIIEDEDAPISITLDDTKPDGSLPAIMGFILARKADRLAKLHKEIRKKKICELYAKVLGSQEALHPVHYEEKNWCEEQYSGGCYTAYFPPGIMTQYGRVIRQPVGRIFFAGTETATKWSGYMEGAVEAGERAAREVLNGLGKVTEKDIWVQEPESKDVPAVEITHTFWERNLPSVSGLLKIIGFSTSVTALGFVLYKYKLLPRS
Put plainly: Inhibition of monoamine oxidase A. It is filed as biochemical. The conditions noted are these: read-out: MAO-A % Inhibition at 10 µM.

The next assay concerns the target human H3R (Homo sapiens, UniProt Q9Y5N1). Put plainly: Human H3R radioligand displacement assay. On the technique in general: Loss of bound radioactivity is the signal in a displacement assay; it reports binding, not function.
A further assay deals with human H1R (Homo sapiens, UniProt P35367). Put plainly: Human H1R radioligand displacement assay. The conditions noted are these: read-out: hH1R Inhibition at 10 µM [%] ±SD (n). The assay is classed as binding.
Sequence of human H1R (P35367 whole entry): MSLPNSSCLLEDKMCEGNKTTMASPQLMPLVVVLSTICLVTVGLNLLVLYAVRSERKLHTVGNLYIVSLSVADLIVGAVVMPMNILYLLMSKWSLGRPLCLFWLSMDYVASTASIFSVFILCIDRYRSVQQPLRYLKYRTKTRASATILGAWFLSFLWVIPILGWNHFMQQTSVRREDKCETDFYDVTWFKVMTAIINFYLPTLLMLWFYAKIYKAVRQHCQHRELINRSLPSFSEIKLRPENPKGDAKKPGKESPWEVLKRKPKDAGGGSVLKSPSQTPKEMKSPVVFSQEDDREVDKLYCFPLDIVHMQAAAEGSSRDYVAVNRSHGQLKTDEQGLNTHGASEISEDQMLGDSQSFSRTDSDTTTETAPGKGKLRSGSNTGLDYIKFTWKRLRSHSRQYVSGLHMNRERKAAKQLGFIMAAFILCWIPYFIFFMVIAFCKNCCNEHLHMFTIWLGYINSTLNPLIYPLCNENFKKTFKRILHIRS
Another assay concerns the target human AChE (Homo sapiens, UniProt P22303). Put plainly: Inhibition of AChE. The assay is classed as biochemical.
The target in a further assay is T2, human recombinant MAO-B (Homo sapiens, UniProt P27338).
T2 sequence (P27338 1-520): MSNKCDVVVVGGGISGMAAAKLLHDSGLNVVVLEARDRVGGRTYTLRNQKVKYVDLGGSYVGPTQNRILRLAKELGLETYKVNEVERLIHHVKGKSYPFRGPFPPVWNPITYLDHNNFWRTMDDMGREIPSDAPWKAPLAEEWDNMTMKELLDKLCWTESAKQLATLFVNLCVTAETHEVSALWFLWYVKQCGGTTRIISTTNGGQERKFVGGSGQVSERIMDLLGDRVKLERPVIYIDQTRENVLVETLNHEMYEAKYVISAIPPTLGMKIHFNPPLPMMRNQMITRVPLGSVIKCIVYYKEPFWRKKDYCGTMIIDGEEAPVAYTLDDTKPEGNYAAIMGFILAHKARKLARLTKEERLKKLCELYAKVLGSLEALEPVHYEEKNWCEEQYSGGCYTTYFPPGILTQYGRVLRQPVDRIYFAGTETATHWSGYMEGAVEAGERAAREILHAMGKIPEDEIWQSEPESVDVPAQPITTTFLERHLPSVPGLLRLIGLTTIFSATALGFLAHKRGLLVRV
Description: Inhibition of monoamine oxidase B. It is filed as biochemical. The conditions noted are these: read-out: MAO-B % Inhibition at 10 µM, 10 µM; mean of three experiments.

For another assay, the target named is human H4R (Homo sapiens, UniProt Q9H3N8). Put plainly: Human H4R radioligand displacement assay. The conditions noted are these: read-out: hH4R Inhibition at 10 µM [%] (n).
Sequence of human H4R (Q9H3N8 whole entry): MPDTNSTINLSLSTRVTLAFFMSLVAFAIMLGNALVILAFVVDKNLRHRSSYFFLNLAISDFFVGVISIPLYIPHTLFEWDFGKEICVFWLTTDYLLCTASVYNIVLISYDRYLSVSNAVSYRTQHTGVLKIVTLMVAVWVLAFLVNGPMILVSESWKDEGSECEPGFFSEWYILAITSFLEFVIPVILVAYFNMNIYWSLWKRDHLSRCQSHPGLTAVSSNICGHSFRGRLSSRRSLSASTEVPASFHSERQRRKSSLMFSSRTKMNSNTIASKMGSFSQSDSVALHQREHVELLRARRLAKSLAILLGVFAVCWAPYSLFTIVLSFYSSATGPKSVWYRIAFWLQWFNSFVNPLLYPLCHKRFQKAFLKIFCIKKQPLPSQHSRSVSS
The target in the next assay is BuChE from human serum (Homo sapiens, UniProt P06276). Put plainly: Inhibition of BuChE. The conditions noted are these: read-out: hBuChE % Inhibition at 10 µM. The assay is classed as biochemical.
Sequence of BuChE from human serum (P06276 29-602): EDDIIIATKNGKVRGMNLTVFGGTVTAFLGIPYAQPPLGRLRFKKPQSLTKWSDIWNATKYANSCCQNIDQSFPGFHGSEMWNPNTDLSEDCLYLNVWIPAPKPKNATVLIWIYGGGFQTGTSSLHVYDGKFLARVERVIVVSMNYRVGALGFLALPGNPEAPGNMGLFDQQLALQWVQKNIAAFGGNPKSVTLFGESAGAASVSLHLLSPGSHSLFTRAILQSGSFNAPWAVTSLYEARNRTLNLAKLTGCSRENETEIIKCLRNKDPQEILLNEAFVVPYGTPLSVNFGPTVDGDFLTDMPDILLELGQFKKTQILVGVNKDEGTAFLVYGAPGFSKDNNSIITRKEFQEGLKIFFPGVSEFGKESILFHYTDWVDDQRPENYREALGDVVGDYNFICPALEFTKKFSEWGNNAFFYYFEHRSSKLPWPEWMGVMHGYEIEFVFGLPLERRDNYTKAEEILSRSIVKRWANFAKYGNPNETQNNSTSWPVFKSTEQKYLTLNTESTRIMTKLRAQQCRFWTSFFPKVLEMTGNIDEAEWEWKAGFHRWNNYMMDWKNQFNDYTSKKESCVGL

Bounds are passed on as bounds.

Sequence of human AChE (P22303 32-614): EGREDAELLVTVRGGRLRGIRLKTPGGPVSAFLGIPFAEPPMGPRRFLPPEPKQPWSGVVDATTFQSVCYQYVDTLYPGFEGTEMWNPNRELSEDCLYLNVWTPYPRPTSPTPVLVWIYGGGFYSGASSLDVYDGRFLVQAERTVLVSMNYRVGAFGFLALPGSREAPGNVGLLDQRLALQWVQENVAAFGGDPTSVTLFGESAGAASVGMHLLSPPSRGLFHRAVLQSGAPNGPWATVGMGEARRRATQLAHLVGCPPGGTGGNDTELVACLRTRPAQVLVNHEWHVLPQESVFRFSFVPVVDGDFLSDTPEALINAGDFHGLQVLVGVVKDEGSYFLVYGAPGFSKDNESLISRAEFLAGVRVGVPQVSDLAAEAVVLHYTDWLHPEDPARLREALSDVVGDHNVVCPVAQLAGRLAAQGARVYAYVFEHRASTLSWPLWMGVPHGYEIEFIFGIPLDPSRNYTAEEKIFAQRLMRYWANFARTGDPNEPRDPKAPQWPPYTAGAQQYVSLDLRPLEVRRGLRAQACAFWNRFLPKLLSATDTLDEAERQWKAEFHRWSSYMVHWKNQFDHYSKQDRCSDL
Sequence of human H3R (Q9Y5N1 whole entry): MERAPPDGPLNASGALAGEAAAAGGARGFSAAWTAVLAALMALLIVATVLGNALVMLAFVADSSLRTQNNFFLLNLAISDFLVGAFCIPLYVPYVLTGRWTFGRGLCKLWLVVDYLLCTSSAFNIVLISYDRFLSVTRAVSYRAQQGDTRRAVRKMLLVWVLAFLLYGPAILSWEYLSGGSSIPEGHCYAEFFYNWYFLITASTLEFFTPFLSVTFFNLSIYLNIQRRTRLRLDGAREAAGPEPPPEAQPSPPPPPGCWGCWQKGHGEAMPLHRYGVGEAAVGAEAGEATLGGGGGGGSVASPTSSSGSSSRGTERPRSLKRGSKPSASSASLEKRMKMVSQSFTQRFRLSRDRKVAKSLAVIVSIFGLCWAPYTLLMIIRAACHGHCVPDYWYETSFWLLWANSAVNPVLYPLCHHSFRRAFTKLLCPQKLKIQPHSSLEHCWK

Broadly, the inhibition is the drop in the measured response relative to a control, in per cent. One may read the Ki as the dissociation constant of the complex between target and ligand, obtained from inhibition or displacement. The term IC50 denotes the point on the concentration scale where inhibition reaches its midpoint. A high value points to weaker potency in that assay. In the case of `O=C(c1nc2ccc(OCCCN3CCCCC3)cc2s1)N1CCCCC1` [Compound 3d, Piperidin-1-yl-(6-(3-(piperidin-1-yl)propoxy)benzo[d]thiazol-2-yl)methanone], the inhibition at 10 µM on human recombinant MAO-A was 33 ± 3%; on human H1R it was 65.3 ± 9.2%; at human AChE (read-out: AChE Inhibition at 10 µM [%]), 33.6 ± 10.8%; at human recombinant MAO-B, 28 ± 5%; at human H4R it was 63.1 ± 11.2%; at BuChE from human serum, 31 ± 1%. The molecule further had a Ki at human H3R of 74 nM. In addition, the IC50 against human AChE was above 10000 nM.
